The test concerns MT4. Kind of test: Antiviral activity was determined by measurement of HIV-p24 antigen production in the supernatants of the infected MT-4 cell cultures with acommercially available HIV-antigen kit. It is filed as functional, Homo sapiens.

The term Inhibition denotes how much of the control response was suppressed. The low end stands for a weak effect, the high end for a strong effect. Turning to `CC(=O)OCC1=CO[C@@H](OC(=O)CC(C)C)[C@H]2C1=C[C@H](OC(=O)CC(C)C)[C@]21CO1` [VALTRATE], the Inhibition is reported as 44%.

(Values after ChEMBL document CHEMBL1136035, “New Rev-transport inhibitor with anti-HIV activity from Valerianae Radix” (2002).)
